{"source": "patent US8927717B1", "about": "“Thiochromeno[2,3-c]quinolin-12-one derivatives, preparation method and application thereof” (National Defense Medical Center, priority 2014, dated 2015)", "format_in_all_cases": "cell-based", "key": {"CCRF-CEM": {"test_system": "CCRF-CEM", "details": "CCRF-CEM; 10^−5 molar"}, "HL-60(TB)": {"test_system": "HL-60(TB)", "details": "HL-60(TB); 10^−5 molar"}, "K-562": {"test_system": "K-562", "details": "K-562; 10^−5 molar"}, "MOLT-4": {"test_system": "MOLT-4", "details": "MOLT-4; 10^−5 molar"}, "RPMI-8226": {"test_system": "RPMI-8226", "details": "RPMI-8226; 10^−5 molar"}, "A549/ATCC": {"test_system": "A549/ATCC", "details": "A549/ATCC; 10^−5 molar"}, "HOP-62": {"test_system": "HOP-62", "details": "HOP-62; 10^−5 molar"}, "NCI-H226": {"test_system": "NCI-H226", "details": "NCI-H226; 10^−5 molar"}, "NCI-H23": {"test_system": "NCI-H23", "details": "NCI-H23; 10^−5 molar"}, "NCI-H460": {"test_system": "NCI-H460", "details": "NCI-H460; 10^−5 molar"}, "NCI-H522": {"test_system": "NCI-H522", "details": "NCI-H522; 10^−5 molar"}, "COLO 205": {"test_system": "COLO 205", "details": "COLO 205; 10^−5 molar"}, "HT29": {"test_system": "HT29", "details": "HT29; 10^−5 molar"}, "KM12": {"test_system": "KM12", "assay": "cells", "details": "KM12; 10^−5 molar"}, "SF-268": {"test_system": "SF-268", "details": "SF-268; 10^−5 molar"}, "SNB-19": {"test_system": "SNB-19", "details": "SNB-19; 10^−5 molar"}, "SNB-75": {"test_system": "SNB-75", "details": "SNB-75; 10^−5 molar"}, "U251": {"test_system": "U251", "details": "U251; 10^−5 molar"}, "LOX IMVI": {"test_system": "LOX IMVI", "details": "LOX IMVI; 10^−5 molar"}, "MALME-3M": {"test_system": "MALME-3M", "details": "MALME-3M; 10^−5 molar"}, "MDA-MB-435": {"test_system": "MDA-MB-435", "details": "MDA-MB-435; 10^−5 molar"}, "SK-MEL-28": {"test_system": "SK-MEL-28", "details": "SK-MEL-28; 10^−5 molar"}, "SK-MEL-5": {"test_system": "SK-MEL-5", "details": "SK-MEL-5; 10^−5 molar"}, "UACC-62": {"test_system": "UACC-62", "details": "UACC-62; 10^−5 molar"}, "OVCAR-5": {"test_system": "OVCAR-5", "details": "OVCAR-5; 10^−5 molar"}, "OVCAR-8": {"test_system": "OVCAR-8", "details": "OVCAR-8; 10^−5 molar"}, "SK-OV-3": {"test_system": "SK-OV-3", "details": "SK-OV-3; 10^−5 molar"}, "786-0": {"test_system": "786-0", "details": "786-0; 10^−5 molar"}, "A498": {"test_system": "A498", "details": "A498; 10^−5 molar"}, "RXF 393": {"test_system": "RXF 393", "details": "RXF 393; 10^−5 molar"}, "TK-10": {"test_system": "TK-10", "details": "TK-10; 10^−5 molar"}, "UO-31": {"test_system": "UO-31", "details": "UO-31; 10^−5 molar"}, "PC-3": {"test_system": "PC-3", "details": "PC-3; 10^−5 molar"}, "DU-145": {"test_system": "DU-145", "details": "DU-145; 10^−5 molar"}, "MCF7": {"test_system": "MCF7", "details": "MCF7; 10^−5 molar"}, "MDA-MB-231/ATCC": {"test_system": "MDA-MB-231/ATCC", "details": "MDA-MB-231/ATCC; 10^−5 molar"}, "HS 578T": {"test_system": "HS 578T", "details": "HS 578T; 10^−5 molar"}, "BT-549": {"test_system": "BT-549", "details": "BT-549; 10^−5 molar"}, "60 cancer cell lines": {"test_system": "60 cancer cell lines", "assay": "NCI 60-cell screen, SRB, whole panel (mean, delta, range)", "details": "10^−5 molar; for Growth percent, Delta: delta over panel; for Growth percent, Mean: mean over panel; for Growth percent, Range: range over panel"}}}
{"smiles": "O=c1c2cc(Cl)ccc2sc2c(NCCN3CCOCC3)nc3ccccc3c12", "note": "[Compound N16, 10-Chloro-6-((2-morpholinoethyl)amino)-12H-thiochromeno[2,3-c]quinolin-12-one]", "values": [{"measurement": "Growth percent", "setting": "CCRF-CEM", "value": 82.21, "unit": "%"}, {"measurement": "Growth percent", "setting": "HL-60(TB)", "value": 104.97, "unit": "%"}, {"measurement": "Growth percent", "setting": "K-562", "value": 17.67, "unit": "%"}, {"measurement": "Growth percent", "setting": "MOLT-4", "value": 80.91, "unit": "%"}, {"measurement": "Growth percent", "setting": "RPMI-8226", "value": 92.20, "unit": "%"}, {"measurement": "Growth percent", "setting": "A549/ATCC", "value": 95.12, "unit": "%"}, {"measurement": "Growth percent", "setting": "HOP-62", "value": 67.97, "unit": "%"}, {"measurement": "Growth percent", "setting": "NCI-H226", "value": 94.09, "unit": "%"}, {"measurement": "Growth percent", "setting": "NCI-H23", "value": 83.07, "unit": "%"}, {"measurement": "Growth percent", "setting": "NCI-H460", "value": 100.49, "unit": "%"}, {"measurement": "Growth percent", "setting": "NCI-H522", "value": 76.66, "unit": "%"}, {"measurement": "Growth percent", "setting": "COLO 205", "value": 79.39, "unit": "%"}, {"measurement": "Growth percent", "setting": "HT29", "value": 43.13, "unit": "%"}, {"measurement": "Growth percent", "setting": "KM12", "value": 68.16, "unit": "%"}, {"measurement": "Growth percent", "setting": "SF-268", "value": 79.49, "unit": "%"}, {"measurement": "Growth percent", "setting": "SNB-19", "value": 90.44, "unit": "%"}, {"measurement": "Growth percent", "setting": "SNB-75", "value": 60.74, "unit": "%"}, {"measurement": "Growth percent", "setting": "U251", "value": 76.34, "unit": "%"}, {"measurement": "Growth percent", "setting": "LOX IMVI", "value": 67.43, "unit": "%"}, {"measurement": "Growth percent", "setting": "MALME-3M", "value": 78.79, "unit": "%"}, {"measurement": "Growth percent", "setting": "MDA-MB-435", "value": 98.93, "unit": "%"}, {"measurement": "Growth percent", "setting": "SK-MEL-28", "value": 98.56, "unit": "%"}, {"measurement": "Growth percent", "setting": "SK-MEL-5", "value": 91.61, "unit": "%"}, {"measurement": "Growth percent", "setting": "UACC-62", "value": 94.58, "unit": "%"}, {"measurement": "Growth percent", "setting": "OVCAR-5", "value": 68.98, "unit": "%"}, {"measurement": "Growth percent", "setting": "OVCAR-8", "value": 92.43, "unit": "%"}, {"measurement": "Growth percent", "setting": "SK-OV-3", "value": 85.34, "unit": "%"}, {"measurement": "Growth percent", "setting": "786-0", "value": 83.16, "unit": "%"}, {"measurement": "Growth percent", "setting": "A498", "value": 80.54, "unit": "%"}, {"measurement": "Growth percent", "setting": "RXF 393", "value": 93.21, "unit": "%"}, {"measurement": "Growth percent", "setting": "TK-10", "value": 76.67, "unit": "%"}, {"measurement": "Growth percent", "setting": "UO-31", "value": 54.16, "unit": "%"}, {"measurement": "Growth percent", "setting": "PC-3", "value": 67.82, "unit": "%"}, {"measurement": "Growth percent", "setting": "DU-145", "value": 93.09, "unit": "%"}, {"measurement": "Growth percent", "setting": "MCF7", "value": 51.69, "unit": "%"}, {"measurement": "Growth percent", "setting": "MDA-MB-231/ATCC", "value": 59.20, "unit": "%"}, {"measurement": "Growth percent", "setting": "HS 578T", "value": 89.65, "unit": "%"}, {"measurement": "Growth percent", "setting": "BT-549", "value": 91.21, "unit": "%"}, {"measurement": "Growth percent, Delta", "setting": "60 cancer cell lines", "value": 62.71, "unit": "%"}, {"measurement": "Growth percent, Mean", "setting": "60 cancer cell lines", "value": 80.38, "unit": "%"}, {"measurement": "Growth percent, Range", "setting": "60 cancer cell lines", "value": 88.85, "unit": "%"}]}
{"smiles": "CN(C)CCCNc1nc2ccccc2c2c(=O)c3cc(Cl)ccc3sc12", "note": "[Compound N17, 10-Chloro-6-((3-(dimethylamino)propyl)amino)-12H-thiochromeno[2,3-c]quinolin-12-one]", "values": [{"measurement": "Growth percent", "setting": "CCRF-CEM", "value": 69.06, "unit": "%"}, {"measurement": "Growth percent", "setting": "HL-60(TB)", "value": 77.32, "unit": "%"}, {"measurement": "Growth percent", "setting": "K-562", "value": 47.53, "unit": "%"}, {"measurement": "Growth percent", "setting": "MOLT-4", "value": 70.71, "unit": "%"}, {"measurement": "Growth percent", "setting": "RPMI-8226", "value": 78.66, "unit": "%"}, {"measurement": "Growth percent", "setting": "A549/ATCC", "value": 81.19, "unit": "%"}, {"measurement": "Growth percent", "setting": "HOP-62", "value": 86.73, "unit": "%"}, {"measurement": "Growth percent", "setting": "NCI-H226", "value": 81.01, "unit": "%"}, {"measurement": "Growth percent", "setting": "NCI-H23", "value": 100.25, "unit": "%"}, {"measurement": "Growth percent", "setting": "NCI-H460", "value": 88.06, "unit": "%"}, {"measurement": "Growth percent", "setting": "NCI-H522", "value": 98.76, "unit": "%"}, {"measurement": "Growth percent", "setting": "COLO 205", "value": 91.35, "unit": "%"}, {"measurement": "Growth percent", "setting": "HT29", "value": 90.98, "unit": "%"}, {"measurement": "Growth percent", "setting": "KM12", "value": 97.75, "unit": "%"}, {"measurement": "Growth percent", "setting": "SF-268", "value": 87.67, "unit": "%"}, {"measurement": "Growth percent", "setting": "SNB-19", "value": 97.83, "unit": "%"}, {"measurement": "Growth percent", "setting": "SNB-75", "value": 60.99, "unit": "%"}, {"measurement": "Growth percent", "setting": "U251", "value": 84.19, "unit": "%"}, {"measurement": "Growth percent", "setting": "LOX IMVI", "value": 66.16, "unit": "%"}, {"measurement": "Growth percent", "setting": "MALME-3M", "value": 100.91, "unit": "%"}, {"measurement": "Growth percent", "setting": "MDA-MB-435", "value": 93.04, "unit": "%"}, {"measurement": "Growth percent", "setting": "SK-MEL-28", "value": 99.63, "unit": "%"}, {"measurement": "Growth percent", "setting": "SK-MEL-5", "value": 91.73, "unit": "%"}, {"measurement": "Growth percent", "setting": "UACC-62", "value": 102.63, "unit": "%"}, {"measurement": "Growth percent", "setting": "OVCAR-5", "value": 106.26, "unit": "%"}, {"measurement": "Growth percent", "setting": "OVCAR-8", "value": 98.38, "unit": "%"}, {"measurement": "Growth percent", "setting": "SK-OV-3", "value": 99.91, "unit": "%"}, {"measurement": "Growth percent", "setting": "786-0", "value": 93.30, "unit": "%"}, {"measurement": "Growth percent", "setting": "A498", "value": 78.57, "unit": "%"}, {"measurement": "Growth percent", "setting": "RXF 393", "value": 76.32, "unit": "%"}, {"measurement": "Growth percent", "setting": "TK-10", "value": 108.89, "unit": "%"}, {"measurement": "Growth percent", "setting": "UO-31", "value": 72.62, "unit": "%"}, {"measurement": "Growth percent", "setting": "PC-3", "value": 81.31, "unit": "%"}, {"measurement": "Growth percent", "setting": "DU-145", "value": 97.29, "unit": "%"}, {"measurement": "Growth percent", "setting": "MCF7", "value": 51.20, "unit": "%"}, {"measurement": "Growth percent", "setting": "MDA-MB-231/ATCC", "value": 73.39, "unit": "%"}, {"measurement": "Growth percent", "setting": "HS 578T", "value": 87.67, "unit": "%"}, {"measurement": "Growth percent", "setting": "BT-549", "value": 99.81, "unit": "%"}, {"measurement": "Growth percent, Delta", "setting": "60 cancer cell lines", "value": 44.56, "unit": "%"}, {"measurement": "Growth percent, Mean", "setting": "60 cancer cell lines", "value": 85.32, "unit": "%"}, {"measurement": "Growth percent, Range", "setting": "60 cancer cell lines", "value": 68.13, "unit": "%"}]}
